Columns and labels:
[1] = system: endogenous testosterone, LH, and FSH production; assay: Example 3: hormone levels after enclomiphene; format: in vivo, human; conditions: 6.25 mg enclomiphene; n=1
Method: This example investigated the effects of administering a SERM (enclomiphene) on endogenous testosterone, LH, and FSH production.
Hormone levels were measured after administration of 6.25 mg of enclomiphene (see Table 3, n=1).

[2] = Testosterone concentration at time points after 200 mg of testosterone (FIG. 1)
Method: FIG. 1 is a phase diagram of the testosterone concentration in a patient at various time points after being administered 200 mg of testosterone.
Hormone levels were measured after co-administration of 200 mg of testosterone and 6.25 mg of enclomiphene for 30 days. Testosterone concentration was measured at +4 hours and +12 hours after administration. […] Testosterone concentration was measured at +4 hours after administration to capture the peak testosterone concentration (cMax) and +12 hours after administration to capture the trough testosterone concentration (cMin) to determine if endogenous testosterone suppression is prevented with the enclomiphene.

| SMILES | Sex Hormone Binding Globulin [1] [nmol/L] | increase of calculated free testosterone from baseline (114 pg/mL) [1] [%] | time of testosterone peak [2] [h] | time until testosterone is out of the system [2] [h] |
| --- | --- | --- | --- | --- |
| CCN(CC)CCOc1ccc(/C(=C(/Cl)c2ccccc2)c2ccccc2)cc1 [enclomiphene] | 20 | 73 |  |  |
| C[C@]12CC[C@H]3[C@@H](CCC4=CC(=O)CC[C@@]43C)[C@@H]1CC[C@@H]2O [testosterone, 17β-hydroxy-4-androsten-3-one] |  |  | 3 to 5 | ≤ 12 |

— patent US12544387B2, “Methods and compositions for testosterone production” (priority 2023, dated 2026)
